# Reference: paper PMC4338257 (Drug Design, Development and Therapy, 2015)
# Target: human ether-à-go-go-related gene (hERG) channel (Kv11.1) (Homo sapiens, UniProt Q12809)
# Assay: whole-cell patch clamp in HEK […] cells stably expressing hERG
# Assay type: cell-based
# human ether-à-go-go-related gene (hERG) channel (Kv11.1), sequence (Q12809 whole entry): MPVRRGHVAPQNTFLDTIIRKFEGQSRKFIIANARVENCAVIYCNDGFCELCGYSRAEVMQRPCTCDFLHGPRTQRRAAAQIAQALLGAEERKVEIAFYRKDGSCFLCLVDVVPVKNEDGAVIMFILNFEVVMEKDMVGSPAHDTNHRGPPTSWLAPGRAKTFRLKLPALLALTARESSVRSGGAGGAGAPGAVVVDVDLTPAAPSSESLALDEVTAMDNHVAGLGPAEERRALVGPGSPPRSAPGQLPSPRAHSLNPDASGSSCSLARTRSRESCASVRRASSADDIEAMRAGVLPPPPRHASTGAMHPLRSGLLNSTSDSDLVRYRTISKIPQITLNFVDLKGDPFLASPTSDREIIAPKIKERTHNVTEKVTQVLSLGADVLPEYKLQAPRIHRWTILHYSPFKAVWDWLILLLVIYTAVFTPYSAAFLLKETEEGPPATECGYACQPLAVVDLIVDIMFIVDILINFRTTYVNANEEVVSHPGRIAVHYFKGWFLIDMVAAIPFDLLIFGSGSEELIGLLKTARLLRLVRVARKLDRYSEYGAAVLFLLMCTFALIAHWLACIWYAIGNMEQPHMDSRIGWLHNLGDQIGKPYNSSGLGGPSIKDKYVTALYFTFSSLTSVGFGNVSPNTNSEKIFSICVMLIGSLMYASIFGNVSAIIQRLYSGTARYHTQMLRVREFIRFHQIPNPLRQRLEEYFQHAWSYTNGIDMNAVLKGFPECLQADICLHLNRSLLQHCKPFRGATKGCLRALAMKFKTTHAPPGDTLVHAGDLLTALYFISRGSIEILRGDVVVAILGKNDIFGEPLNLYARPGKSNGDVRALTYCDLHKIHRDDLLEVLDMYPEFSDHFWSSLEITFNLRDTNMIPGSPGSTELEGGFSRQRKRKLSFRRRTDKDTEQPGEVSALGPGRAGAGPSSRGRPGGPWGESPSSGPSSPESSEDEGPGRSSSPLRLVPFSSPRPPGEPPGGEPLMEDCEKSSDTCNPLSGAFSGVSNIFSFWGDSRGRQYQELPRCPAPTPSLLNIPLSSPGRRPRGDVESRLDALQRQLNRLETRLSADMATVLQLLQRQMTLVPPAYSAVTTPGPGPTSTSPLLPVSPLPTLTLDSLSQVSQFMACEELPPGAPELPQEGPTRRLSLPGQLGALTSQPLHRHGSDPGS
structure (smiles),measurement,value
Cc1ncc2n1-c1ccc(Cl)cc1C(c1ccccc1F)=NC2 [midazolam],IC50,13.6 µM
